The results in this text go back to ChEMBL document CHEMBL4261552, “4-Hydroxy-N-[3,5-bis(trifluoromethyl)phenyl]-1,2,5-thiadiazole-3-carboxamide: a novel inhibitor of the canonical NF-κB cascade” (Medchemcomm, 2017).

In assay [1] the target is T1, Inhibitor of nuclear factor kappa-B kinase subunit beta (Homo sapiens, UniProt O14920).
T1 sequence (O14920 whole entry): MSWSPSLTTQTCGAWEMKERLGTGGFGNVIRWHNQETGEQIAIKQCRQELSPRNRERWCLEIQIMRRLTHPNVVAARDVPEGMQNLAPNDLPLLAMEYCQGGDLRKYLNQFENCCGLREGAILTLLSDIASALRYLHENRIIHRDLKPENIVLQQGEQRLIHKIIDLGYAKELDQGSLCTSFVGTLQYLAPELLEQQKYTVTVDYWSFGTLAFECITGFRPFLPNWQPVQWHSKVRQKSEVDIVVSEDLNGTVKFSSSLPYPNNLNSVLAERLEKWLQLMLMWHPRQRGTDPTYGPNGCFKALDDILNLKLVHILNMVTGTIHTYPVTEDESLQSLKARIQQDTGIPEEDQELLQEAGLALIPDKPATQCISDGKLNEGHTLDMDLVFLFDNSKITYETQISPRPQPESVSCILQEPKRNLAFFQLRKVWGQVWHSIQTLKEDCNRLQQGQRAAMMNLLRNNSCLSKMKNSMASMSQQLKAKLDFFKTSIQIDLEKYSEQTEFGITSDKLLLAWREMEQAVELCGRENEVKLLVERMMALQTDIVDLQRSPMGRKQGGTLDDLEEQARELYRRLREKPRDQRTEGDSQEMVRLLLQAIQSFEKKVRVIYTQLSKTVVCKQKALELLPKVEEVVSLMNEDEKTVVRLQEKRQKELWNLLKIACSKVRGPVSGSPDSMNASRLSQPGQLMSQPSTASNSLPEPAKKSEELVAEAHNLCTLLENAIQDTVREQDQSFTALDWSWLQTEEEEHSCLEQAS
The experiment in a line: Inhibition of human IKKbeta using ERLLDDRHDSGLDSMKDEE as substrate after 60 mins in presence of ATP by ADP-Glo kinase assay. Background: ADP-Glo turns the ADP formed in a reaction into a luminescent signal.

Assay [2] concerns the target T2, Inhibitor of nuclear factor kappa-B kinase subunit beta (Homo sapiens) (UniProt O14920).
T2 sequence (whole entry): T1 sequence (O14920 whole entry)
The experiment in a line: Inhibition of human IKKbeta at 100 uM using ERLLDDRHDSGLDSMKDEE as substrate after 60 mins in presence of ATP by ADP-Glo kinase assay relative to control.

Assay [3] addresses T3, Inhibitor of nuclear factor kappa-B kinase subunit alpha (Homo sapiens, UniProt O15111).
T3 sequence (O15111 whole entry): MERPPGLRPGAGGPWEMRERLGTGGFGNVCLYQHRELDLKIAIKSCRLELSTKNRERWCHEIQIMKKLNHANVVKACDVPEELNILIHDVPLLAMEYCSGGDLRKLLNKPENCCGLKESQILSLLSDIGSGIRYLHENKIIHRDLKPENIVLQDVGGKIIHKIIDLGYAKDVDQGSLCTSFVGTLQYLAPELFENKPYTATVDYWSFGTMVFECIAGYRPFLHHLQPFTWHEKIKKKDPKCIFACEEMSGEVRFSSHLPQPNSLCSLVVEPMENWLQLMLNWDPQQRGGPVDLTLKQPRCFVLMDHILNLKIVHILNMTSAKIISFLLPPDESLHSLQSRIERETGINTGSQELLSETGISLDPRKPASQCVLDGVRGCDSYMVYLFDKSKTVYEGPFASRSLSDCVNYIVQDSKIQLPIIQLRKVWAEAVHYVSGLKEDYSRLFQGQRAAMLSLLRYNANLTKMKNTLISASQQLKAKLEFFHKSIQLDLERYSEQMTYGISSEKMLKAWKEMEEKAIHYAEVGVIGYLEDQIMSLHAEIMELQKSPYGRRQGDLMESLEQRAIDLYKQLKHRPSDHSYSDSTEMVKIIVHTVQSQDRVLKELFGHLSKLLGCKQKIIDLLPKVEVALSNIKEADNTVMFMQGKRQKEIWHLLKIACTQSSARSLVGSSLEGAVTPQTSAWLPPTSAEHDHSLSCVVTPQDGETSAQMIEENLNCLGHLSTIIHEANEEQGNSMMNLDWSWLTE
The assay can be described thus: Inhibition of human IKKalpha using ERLLDDRHDSGLDSMKDEE as substrate after 60 mins in presence of ATP by ADP-Glo kinase assay.

The target in assay [4] is T4, Inhibitor of nuclear factor kappa-B kinase subunit alpha (Homo sapiens) (UniProt O15111).
T4 sequence (whole entry): T3 sequence (O15111 whole entry)
The assay can be described thus: Inhibition of human IKKalpha at 100 uM using ERLLDDRHDSGLDSMKDEE as substrate after 60 mins in presence of ATP by ADP-Glo kinase assay relative to control.

Assay [5] addresses T5, Inhibitor of nuclear factor kappa-B kinase subunit epsilon (Homo sapiens, UniProt Q14164).
T5 sequence (Q14164 whole entry): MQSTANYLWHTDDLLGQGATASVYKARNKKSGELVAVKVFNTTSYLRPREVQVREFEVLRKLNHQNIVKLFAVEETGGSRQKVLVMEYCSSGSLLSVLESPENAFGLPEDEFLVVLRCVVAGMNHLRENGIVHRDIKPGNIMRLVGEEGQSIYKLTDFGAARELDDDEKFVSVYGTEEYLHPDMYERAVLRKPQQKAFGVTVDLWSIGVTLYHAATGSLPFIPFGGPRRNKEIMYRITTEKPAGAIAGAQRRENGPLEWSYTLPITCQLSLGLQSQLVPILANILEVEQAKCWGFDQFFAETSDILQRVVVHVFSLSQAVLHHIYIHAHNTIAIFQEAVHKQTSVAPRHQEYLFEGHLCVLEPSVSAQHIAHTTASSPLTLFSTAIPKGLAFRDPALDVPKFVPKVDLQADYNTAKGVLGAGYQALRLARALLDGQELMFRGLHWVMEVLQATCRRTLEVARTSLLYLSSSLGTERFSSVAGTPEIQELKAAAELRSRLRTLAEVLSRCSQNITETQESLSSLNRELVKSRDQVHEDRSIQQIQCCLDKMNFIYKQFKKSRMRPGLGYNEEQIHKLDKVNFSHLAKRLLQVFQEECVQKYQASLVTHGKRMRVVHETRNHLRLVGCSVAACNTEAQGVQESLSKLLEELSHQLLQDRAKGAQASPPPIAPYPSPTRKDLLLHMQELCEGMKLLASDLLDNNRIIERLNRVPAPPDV
The assay can be described thus: Inhibition of human IKKepsilon using ERLLDDRHDSGLDSMKDEE as substrate after 60 mins in presence of ATP by ADP-Glo kinase assay.

For assay [6], the target named is T6, Inhibitor of nuclear factor kappa-B kinase subunit epsilon (Homo sapiens) (UniProt Q14164).
T6 sequence (whole entry): T5 sequence (Q14164 whole entry)
The assay can be described thus: Inhibition of human IKKepsilon at 100 uM using ERLLDDRHDSGLDSMKDEE as substrate after 60 mins in presence of ATP by ADP-Glo kinase assay relative to control.

Assay [7] has as its target T7, Mitogen-activated protein kinase kinase kinase 14 (Homo sapiens, UniProt Q99558). The assay can be described thus: Inhibition of human NIK using AKDVDQGSLCTSFVGTLQY as substrate after 60 mins in presence of ATP by ADP-Glo kinase assay.
Target sequence in this assay (Q99558 whole entry): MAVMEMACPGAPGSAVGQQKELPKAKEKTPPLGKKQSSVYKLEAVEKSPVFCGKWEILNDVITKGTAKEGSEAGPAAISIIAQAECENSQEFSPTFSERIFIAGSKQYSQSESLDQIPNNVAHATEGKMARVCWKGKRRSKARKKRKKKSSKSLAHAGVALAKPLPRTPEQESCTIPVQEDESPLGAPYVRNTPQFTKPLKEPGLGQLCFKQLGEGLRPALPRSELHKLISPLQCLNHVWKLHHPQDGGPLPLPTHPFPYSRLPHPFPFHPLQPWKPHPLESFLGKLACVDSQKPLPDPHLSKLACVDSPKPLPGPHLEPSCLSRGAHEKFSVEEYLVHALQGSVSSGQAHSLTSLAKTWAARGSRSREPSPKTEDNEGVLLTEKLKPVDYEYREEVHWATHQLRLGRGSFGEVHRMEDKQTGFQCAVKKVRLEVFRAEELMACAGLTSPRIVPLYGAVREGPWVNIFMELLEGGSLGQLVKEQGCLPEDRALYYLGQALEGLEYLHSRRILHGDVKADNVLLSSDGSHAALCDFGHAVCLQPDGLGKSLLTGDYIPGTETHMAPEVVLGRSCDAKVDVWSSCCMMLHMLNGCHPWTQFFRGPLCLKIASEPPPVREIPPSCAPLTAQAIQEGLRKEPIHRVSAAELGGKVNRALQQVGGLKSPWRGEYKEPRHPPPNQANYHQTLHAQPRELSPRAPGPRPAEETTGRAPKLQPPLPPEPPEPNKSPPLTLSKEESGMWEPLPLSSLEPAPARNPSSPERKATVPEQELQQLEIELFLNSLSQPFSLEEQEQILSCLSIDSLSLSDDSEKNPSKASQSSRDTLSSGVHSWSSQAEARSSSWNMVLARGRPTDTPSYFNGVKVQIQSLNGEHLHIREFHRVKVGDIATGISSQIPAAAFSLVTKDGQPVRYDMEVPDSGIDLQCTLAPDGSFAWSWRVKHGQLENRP
Assay [8] has as its target T7, Mitogen-activated protein kinase kinase kinase 14. The experiment in a line: Inhibition of human NIK at 100 uM using AKDVDQGSLCTSFVGTLQY as substrate after 60 mins in presence of ATP by ADP-Glo kinase assay relative to control.
Target sequence in this assay (Q99558 whole entry, looked up): as the sequence (Q99558 whole entry) above
For assay [9], the target named is T1, Inhibitor of nuclear factor kappa-B kinase subunit beta. The assay can be described thus: Inhibition of IKK-beta in human Jurkat cells assessed as reduction in TNFalpha-stimulated IkBalpha degradation preincubated for 60 mins followed by TNFalpha stimulation for 20 mins by immunoblot analysis. It is filed as cell-based. (In general: A western blot detects proteins with antibodies after separation by electrophoresis.)

In the case of `COc1nsnc1C(=O)Nc1cc(C(F)(F)F)cc(C(F)(F)F)c1`, the IC50 in assay [1], in assay [3], in assay [5], in assay [7] and in [9] was over 100 µM each time. Further, the inhibition (as a rule, the relative decrease from the control value, in per cent) is 8.51% in [2], 24.1% in [4], 21.9% in assay [6] and -1.9% in [8].

For the compound `O=C(Nc1cc(C(F)(F)F)cc(C(F)(F)F)c1)c1n[nH]nc1O`, the IC50 in [1], in [3], in assay [5], in assay [7] and in assay [9] was over 100 µM each time. Moreover, the inhibition was 5.14% in [2], 24.5% in [4], 15.3% in assay [6] and -9.5% in [8].

Take `O=C(Nc1cccc(C(F)(F)F)c1)c1nonc1O`: the IC50 (as a rule, the point on the concentration scale where inhibition reaches its midpoint) in [1] is over 100 µM; in [3], over 100 µM; in assay [5], over 100 µM; in assay [7], over 100 µM; in assay [9] it was 1.72 µM. Moreover, the inhibition in [2] is 2.06%; in [4], -2.5%; in [6] it was 32.1%; in assay [8], 11.8%.

Regarding `Cn1cc(C(=O)Nc2cc(C(F)(F)F)cc(C(F)(F)F)c2)c(O)n1`, the half-inhibitory concentration (IC50) in assay [1] was over 100 µM; in assay [3] it was over 100 µM; in assay [5], over 100 µM; in [7], over 100 µM; in assay [9], 25.9 µM. The inhibition in [2] stood at 12.7%; in [4] it was 12.1%; in assay [6], 17.2%; in [8], 7.23%.

Regarding `Cc1c(C(=O)Nc2cc(C(F)(F)F)cc(C(F)(F)F)c2)c(O)nn1C`, the IC50 in assay [1] is over 100 µM; in [3], over 100 µM; in assay [5], over 100 µM; in assay [7] it was over 100 µM; in assay [9] it was 1.32 µM. The inhibition in assay [2] is 13.9%; in [4], 13.2%; in assay [6], 14.2%; in [8] it was 24.1%.

For `Nc1nonc1C(=O)Nc1cc(C(F)(F)F)cc(C(F)(F)F)c1`, the IC50 in [1] is over 100 µM; in assay [3], over 100 µM; in [5], 44.8 µM; in [7] it was over 100 µM; in assay [9], over 100 µM. The figures for the inhibition in [2], in assay [4] and in assay [8] were 31.6%, 29.3% and -9.2%, respectively.

Regarding `Cn1nc(O)c(C(=O)Nc2cc(C(F)(F)F)cc(C(F)(F)F)c2)n1`, the IC50 in [1], in [3], in assay [5], in assay [7] and in assay [9] was over 100 µM throughout. For the same compound, the inhibition in [2] worked out at 5.19%; in assay [4], 46.9%; in [6], 6.92%; in assay [8], 9.1%.

Regarding `Cn1nnc(O)c1C(=O)Nc1cc(C(F)(F)F)cc(C(F)(F)F)c1`, the half-maximal inhibitory concentration (IC50) in assay [1] was over 100 µM; in [3], over 100 µM; in assay [5], 58.5 µM; in assay [7], over 100 µM; in assay [9], over 100 µM. Moreover, the inhibition in [2] was 11.2%; in assay [4], 13.1%; in assay [8], 12.1%.

As to `O=C(Nc1cc(C(F)(F)F)cc(C(F)(F)F)c1)c1nonc1O`, the IC50 was over 100 µM in assay [1]; over 100 µM in [3]; 58.5 µM in [5]; over 100 µM in assay [7]; 6.93 µM in assay [9]. Also, the inhibition in [2] stood at 12.2%; in assay [4] it was 18.6%; in [8], 19.3%.

`O=C(Nc1cccc(C(F)(F)F)c1)c1nsnc1O`: the IC50 in [1] is over 100 µM; in assay [3], 35.5 µM; in assay [5] it was over 100 µM; in assay [7], over 100 µM; in assay [9], over 100 µM. Further, the inhibition in assay [2] is -0.94%; in [6], 25.8%; in assay [8], -1.1%.
